Measured values from patent US12377035B2, “Peptides for inhibiting cholinergic calcitonin gene-related peptide (CGRP) and acetylcholine (ACH) release or inhibiting sensitization-mediated by TRPV1-mediated excitability in sensory neurons and methods of use thereof” (AZIENDE CHIMICHE RIUNITE ANGELINI FRANCESCO—A.C.R.A.F. …, priority 2018, dated 2025).
Residues, ends and D or L forms follow the SMILES beside them. *: point of attachment. Palmitoyl = CCCCCCCCCCCCCCCC(=O)*

Assays:
Type in all cases: cell-based
[1] = tested on: acetylcholine release, human neuroblastoma cell line differentiated to cholinergic neuronal phenotype; assay: Inhibition of KCl-induced acetylcholine release in a neuroblastoma cell line (Amplex Red); conditions: for % Ach release inhibition: 50 mM KCl
Procedure: To determine the compound of the invention effects on acetylcholine release, a human neuroblastoma cell line (50.000 cells/well) was used. Cells were differentiated to cholinergic neuronal phenotype for 4 days. Then, cells were pre-incubated for 60 minutes with the compounds (between 0.1 and 100 μM) as acetyl- or palmitoyl-form and conjugated with trifluoroacetate (TFA) or acetate salt. Afterwards, acetylcholine release was induced by membrane depolarization evoked by 15 minutes incubation with 50 mM KCl. Acetylcholine level in supernatants was quantified by using Amplex® Red Acetylcholine Assay Kit (Thermofisher) following manufacturer's instructions. […] Fluorescence (Ex 530 nm/Em 590 nm) was measured in FluorStar equipment. Acetylcholine content was normalized to the total protein content using BCA assay (Pierce) following manufacturer's instructions. Fluorescence measurements were normalized to the maximum signal detected with KCl stimulation in vehicle treated cells. Vesicle exocytosis disruption by the compounds of the invention lead to a decrease of acetylcholine release (Table E).

[2] = tested on: human dermal fibroblasts (HDFa); assay: MTT cell viability assay on dermal fibroblasts; conditions: for % inhibition cell viability: HDFa, 24 hours; for effect on cell viability (in words): dermal fibroblast, up to 200 μM
Procedure: (§1) This example evaluated effects of the peptides of invention on human epidermal keratinocytes and dermal fibroblasts. Cell viability was determined with the 3-(4,5-dimethyl-2-thiazolyl)-2,5-diphenyl-2H-tetrazolium bromide (MTT) assay. The MTT assay is a colorimetric reaction based on the capacity of the mitochondrial dehydrogenase enzyme to break and transform the tetrazolium rings of MTT. Epidermal keratinocytes (HEKa) were seeded in a previously coated 96 well-plate at 50-60% confluence in 100 μL of supplemented corresponding medium. Dermal fibroblasts (HDFa) were seeded in a 96 well-plate at 70% confluence in 100 μL supplemented medium. For both cell lines, 24 hours after seeding, medium was replaced by fresh supplemented medium containing peptides dissolved at concentration range between 0.1 and 200 μM. All test substances were incubated for 24 hours at 37° C. and 5% CO2. Afterwards, medium was replaced by 0.5 mg/ml of MTT solution for 4 hours in complete medium. Then, medium was carefully removed and 150 μL/well of DMSO were added to solubilize formazan crystals. Plate was protected from light, shaken for 60 seconds and optical density was measured at 570 nm with a reference filter of 620 nm. Table F details effects of peptides of invention on keratinocytes and fibroblasts cell viability expressed as percentage of inhibition.

[3] = tested on: human epidermal keratinocytes (HEKa); assay: MTT cell viability assay on epidermal keratinocytes; conditions: for % inhibition cell viability: HEKa, 24 hours; for effect on cell viability (in words): human epidermal keratinocytes, up to 200 μM
Procedure: as §1

[4] = tested on: CGRP induced-release on peptidergic sensory neurons (dorsal root ganglia); assay: Inhibition of capsaicin-induced CGRP release on cultured sensory neurons (CGRP EIA); conditions: 1 hour, 1 μM capsaicin 10 min
Procedure: The induction of the release of calcitonin-gene related peptide (CGRP) with capsaicin enables direct measurement of neuronal exocytosis (Meng J. et al., J. Cell. Sci. (2007) 15; 120(Pt 16):2864-74, and Meng J. et al., Mol. Neurobiol. (2014); 50(2):574-88).
The tested peptides were evaluated by measuring their capability of inhibiting CGRP induced-release on peptidergic sensory neurons. Dorsal root ganglia were seeded (50.000 cells/well) in a 96-well plate previously coated with poly-L-lysine and laminin. After 48 hours seeding, cells were incubated with Hank's Balanced salt solution containing peptides of invention at 20, 50 or 100 μM for 1 hour. Next, cells were stimulated for 10 min with 1 μM capsaicin at 37° C. Then, CGRP content was determined in supernatants using colorimetric based CGRP EIA (Spi-Bio Inc) following manufacturer's instructions. Absorbance measurements (405 nm) were standardized with regard to the maximum signal detected with capsaicin stimulation in vehicle treated cells. Inhibition values of CGRP release were calculated as percentages by considering maximum signal to capsaicin-induced release and minimum as non-stimulated cells. Table D details inhibition values of […] obtained for the peptides of invention.

Row | Compound | % Ach release inhibition ([1]; TFA salt, 5 μM) [%] | % Ach release inhibition ([1]; TFA salt, 50 μM) [%] | % inhibition cell viability ([2]; 0.1 μM) [%] | % inhibition cell viability ([2]; 0.5 μM) [%] | % inhibition cell viability ([2]; 1 μM) [%] | % inhibition cell viability ([2]; 5 μM) [%] | % inhibition cell viability ([2]; 10 μM) [%] | % inhibition cell viability ([2]; 50 μM) [%] | % inhibition cell viability ([3]; 0.1 μM) [%] | % inhibition cell viability ([3]; 0.5 μM) [%] | % inhibition cell viability ([3]; 1 μM) [%] | % inhibition cell viability ([3]; 5 μM) [%] | % inhibition cell viability ([3]; 10 μM) [%] | % inhibition cell viability ([3]; 50 μM) [%] | % Ach release inhibition ([1]; Acetate salt, 0.1 μM) | % Ach release inhibition ([1]; Acetate salt, 1 μM) [%] | % Ach release inhibition ([1]; Acetate salt, 10 μM) [%] | % Ach release inhibition ([1]; TFA salt, 10 μM) [%] | % CGRP release inhibition ([4]; peptide 20 μM) [%] | % CGRP release inhibition ([4]; peptide 50 μM) [%] | further results
1 | CCCCCCCCCCCCCCCC(=O)N[C@@H](CC(C)C)C(=O)N[C@@H](CCCNC(=N)N)C(=O)N[C@H](C(=O)N[C@@H](CCC(N)=O)C(=O)N[C@@H](CCSC)C(=O)N[C@H](C(=O)N[C@@H](CC(N)=O)C(=O)N[C@@H](CCSC)C(=O)N[C@@H](Cc1ccccc1)C(=O)N[C@@H](CC(C)C)C(N)=O)C(C)C)C(C)C [SEQ ID NO: 4 palmitoyl, LRVQMVNMFL] (Palmitoyl-LRVQMVNMFL-NH2) | 26.4 | 83.0 | 15.2 | 26.9 | 34.2 | 42.6 | 40.9 | 37.7 | −6.2 | 1.0 | −7.6 | 7.0 | 18.0 | 34.2 | – | – | – | – | – | – | effect on keratinocyte viability (in words) ([3]; assessed below 50 μM): did not modify keratinocyte viability
2 | CCCCCCCCCCCCCCCC(=O)N[C@@H](CCCNC(=N)N)C(=O)N[C@@H](CCCNC(=N)N)C(=O)N[C@H](C(=O)N[C@H](C(=O)N[C@@H](CC(C)C)C(=O)N[C@H](C(=O)N[C@@H](CC(N)=O)C(=O)N[C@@H](CC(N)=O)C(=O)N[C@H](C(=O)N[C@@H](CC(C)C)C(N)=O)[C@@H](C)CC)C(C)C)C(C)C)C(C)C [SEQ ID NO: 3 palmitoyl, RRVVLVNNIL] (Palmitoyl-RRVVLVNNIL-NH2) | 75.4 | 82.8 | 6.0 | 15.5 | 8.7 | 25.7 | 27.2 | 24.3 | −3.8 | −0.9 | 11.7 | 9.9 | 22.4 | 24.8 | 57.0% | 92.5 | 86.7 | 81.8 | 34.0 | 74.8 | activity on ACh release (in words) ([1]; lowest concentration tested 0.1 μM): active; effect on fibroblast viability (in words) ([2]; at 1 µM or below): did not modify keratinocyte and fibroblast viability; effect on keratinocyte viability (in words) ([3]; at 1 µM or below): did not modify keratinocyte and fibroblast viability
3 | Ac-MQVWLRMWIDYRAT-NH2 [SEQ ID NO: 2 acetyl, MQVWLRMWIDYRAT] | 76.2 | – | – | – | 10.1 | 12.3 | 8.5 | 1.4 | – | – | −1.2 | −1.8 | −0.5 | −4.6 | – | 41.0 | 55.8 | 78.8 | 49.3 | – | % Ach release inhibition ([1]; TFA salt, 20 μM): 10.9%; % inhibition cell viability ([2]; 100 μM): 7.8%; % inhibition cell viability ([2]; 200 μM): 24.6%; effect on cell viability (in words) [2]: did not modify cell viability; % inhibition cell viability ([3]; 100 μM): −0.7%; % inhibition cell viability ([3]; 200 μM): 1.2%; effect on cell viability (in words) [3]: did not modify cell viability; % CGRP release inhibition ([4]; peptide 100 μM): 55.3%
4 | CCCCCCCCCCCCCCCC(=O)N[C@@H](CCSC)C(=O)N[C@@H](CCC(N)=O)C(=O)N[C@H](C(=O)N[C@@H](Cc1c[nH]c2ccccc12)C(=O)N[C@@H](CC(C)C)C(=O)N[C@@H](CCCNC(=N)N)C(=O)N[C@@H](CCSC)C(=O)N[C@@H](Cc1c[nH]c2ccccc12)C(=O)N[C@H](C(=O)N[C@@H](CC(=O)O)C(=O)N[C@@H](Cc1ccc(O)cc1)C(=O)N[C@@H](CCCNC(=N)N)C(=O)N[C@@H](C)C(=O)N[C@H](C(N)=O)[C@@H](C)O)[C@@H](C)CC)C(C)C [SEQ ID NO: 2 palmitoyl, MQVWLRMWIDYRAT] (Palmitoyl-MQVWLRMWIDYRAT-NH2) | −46.1 | 20.6 | 30.8 | 42.9 | 45.8 | 47.3 | 47.1 | 35.3 | 12.1 | 20.9 | 25.6 | 36.9 | 36.5 | 32.5 | – | – | – | −35.1 | 35.5 | 53.9 | –
5 | CCCCCCCCCCCCCCCC(=O)N[C@@H](Cc1c[nH]c2ccccc12)C(=O)N[C@@H](CCC(=O)O)C(=O)N[C@@H](CCC(N)=O)C(=O)N[C@@H](CCC(=O)O)C(=O)N[C@@H](Cc1ccccc1)C(=O)N[C@@H](CC(C)C)C(=O)N[C@@H](CCCNC(=N)N)C(=O)N[C@@H](CCCNC(=N)N)C(N)=O [SEQ ID NO: 5 palmitoyl, WEQEFLRR] (Palmitoyl-WEQEFLRR-NH2) | 25.1 | 17.9 | – | – | −0.2 | 10.3 | 7.6 | 18.0 | – | – | −2.9 | −5.5 | −6.3 | −24.3 | – | – | – | 24.7 | – | – | % Ach release inhibition ([1]; TFA salt, 0.1 μM): 16.4%; % Ach release inhibition ([1]; TFA salt, 1 μM): 16.1%
6 | Ac-WEQEFLRR-NH2 [SEQ ID NO: 5 acetyl, WEQEFLRR] | – | 51.5 | – | – | 9.3 | 10.0 | 12.1 | 10.0 | – | – | −5.7 | 0.8 | 4.2 | 4.3 | around 40% | – | – | 52.8 | – | – | % Ach release inhibition ([1]; TFA salt, 0.1 μM): 19.0%; % Ach release inhibition ([1]; TFA salt, 1 μM): 22.0%; % Ach release inhibition ([1]; TFA salt, 100 μM): 81.6%; % inhibition cell viability ([2]; 100 μM): 15.0%; % inhibition cell viability ([2]; 200 μM): 14.7%; effect on cell viability (in words) [2]: did not modify cell viability; % inhibition cell viability ([3]; 100 μM): 10.4%; % inhibition cell viability ([3]; 200 μM): 23.7%; effect on cell viability (in words) [3]: did not modify cell viability
